According to PubChem BioAssay AID1259407 (Chemical Carcinogenesis Research Information System (CCRIS), 2018):
Calls of active or inactive are those of the source. The rule behind the calls is not given here.

Tested on: CCRIS mutagenicity, Ames/micronucleus/aberration tests
Test: CCRIS mutagenicity studies

For `COS(C)(=O)=O`, the mutagenic call (End Point: IN VITRO MICRONUCLEUS, Test System: CHINESE HAMSTER OVARY CELLS, Metabolic Activation: NONE) was “active; positive”, the mutagenic call (End Point: IN VITRO MICRONUCLEUS, Test System: CHL/IU CELLS, Metabolic Activation: NONE) was “active; positive” and the mutagenic call (End Point: IN VITRO MICRONUCLEUS, Test System: CHO CELLS, Metabolic Activation: RAT, LIVER, S-9, AROCLOR 1254) was “active; positive”. For the same molecule, the mutagenic call (End Point: IN VITRO MICRONUCLEUS, Test System: HUMAN FIBROBLASTS VH25 CELLS, Metabolic Activation: NONE) was “active; positive”, the mutagenic call (End Point: IN VITRO MICRONUCLEUS, Test System: MOUSE LYMPHOMA L5178Y CELLS, Metabolic Activation: NONE) was “active; positive” and the mutagenic call (End Point: IN VIVO MICRONUCLEUS, Test System: BONE MARROW POLYCHROMATIC ERYTHROCYTES, Species: MOUSE, Strain/Sex: SWISS/FEMALE, Route: IP) was “active; positive”. The mutagenic call (End Point: IN VIVO MICRONUCLEUS, Test System: HEPATOCYTES, Species: RAT, Strain/Sex: FISHER 344 OR SD/MALE, Route: ORAL OR IP) was “inactive; negative”, the mutagenic call (End Point: IN VIVO MICRONUCLEUS, Test System: PERIPHERAL BLOOD RETICULOCYTES, Species: RAT, Strain/Sex: FISHER 344 OR SD/MALE, Route: ORAL OR IP) was “active; positive” and the mutagenic call (End Point: In vitro micronucleus, Test System: Chinese hamster ovary (CHO) cells, Metabolic Activation: None) was “active; positive (lycopene (10, 25 and 50 um) significantly reduced the number of micron”. For the same molecule, the mutagenic call (End Point: In vitro micronucleus, Test System: Chinese hamster ovary (CHO-WBL) cells, Metabolic Activation: None) was “active; positive (p<0.01)”, the mutagenic call (Test System: AMES SALMONELLA TYPHIMURIUM, Strain/Indicator: TA97, Metabolic Activation: NONE, Method: STANDARD PLATE) was “active; positive” and the mutagenic call (Test System: AMES SALMONELLA TYPHIMURIUM, Strain/Indicator: TA97, Metabolic Activation: RAT, LIVER, S-9, AROCLOR 1254, Method: STANDARD PLATE) was “inactive; negative”. For the same molecule, the mutagenic call (Test System: AMES SALMONELLA TYPHIMURIUM, Strain/Indicator: TA98, Metabolic Activation: NONE, Method: STANDARD PLATE) was “inactive; negative”, the mutagenic call (Test System: AMES SALMONELLA TYPHIMURIUM, Strain/Indicator: TA98, Metabolic Activation: RAT, LIVER, S-9, AROCLOR 1254, Method: STANDARD PLATE) was “inactive; negative” and the mutagenic call (Test System: AMES SALMONELLA TYPHIMURIUM, Strain/Indicator: TA100, Metabolic Activation: NONE, Method: STANDARD PLATE) was “active; positive”. The mutagenic call (Test System: AMES SALMONELLA TYPHIMURIUM, Strain/Indicator: TA100, Metabolic Activation: RAT, LIVER, S-9, AROCLOR 1254, Method: STANDARD PLATE) was “inactive; negative”, the mutagenic call (Test System: AMES SALMONELLA TYPHIMURIUM, Strain/Indicator: TA1535, Metabolic Activation: NONE, Method: STANDARD PLATE) was “active; positive” and the mutagenic call (Test System: AMES SALMONELLA TYPHIMURIUM, Strain/Indicator: YG7100, Metabolic Activation: NONE, Method: PREINCUBATION) was “inactive; negative”. For the same molecule, the mutagenic call (Test System: AMES SALMONELLA TYPHIMURIUM, Strain/Indicator: YG7104, Metabolic Activation: NONE, Method: PREINCUBATION) was “active; positive”, the mutagenic call (Test System: AMES SALMONELLA TYPHIMURIUM, Strain/Indicator: YG7108, Metabolic Activation: NONE, Method: PREINCUBATION) was “active; positive” and the mutagenic call (Test System: AMES SALMONELLA TYPHIMURIUM, Strain/Indicator: YG7112, Metabolic Activation: NONE, Method: PREINCUBATION) was “active; positive”. The mutagenic call (Test System: AMES SALMONELLA TYPHIMURIUM, Strain/Indicator: YG7113, Metabolic Activation: NONE, Method: PREINCUBATION) was “active; positive”, the mutagenic call (Test System: AMES SALMONELLA TYPHIMURIUM, Strain/Indicator: YG7119, Metabolic Activation: NONE, Method: PREINCUBATION) was “active; positive” and the mutagenic call (Test System: CHINESE HAMSTER OVARY, Strain/Indicator: CHO-K1-BH4 (HGPRT)/6-THIOGUANINE, Metabolic Activation: NONE, Method: SUSPENSION/PLATE) was “active; positive”. For the same molecule, the mutagenic call (Test System: CHINESE HAMSTER OVARY, Strain/Indicator: CHO-K1-BH4 (HGPRT), Metabolic Activation: NONE, Method: MONOLAYER) was “active; positive”, the mutagenic call (Test System: CHINESE HAMSTER OVARY, Strain/Indicator: CHO-K1-BH4 (HGPRT), Metabolic Activation: NONE, Method: SUSPENSION/PLATE) was “active; positive” and the mutagenic call (Test System: CHINESE HAMSTER V-79, Strain/Indicator: V-79/6-THIOGUANINE, Metabolic Activation: NONE, Method: FLASK ASSAY) was “active; positive”. For the same molecule, the mutagenic call (Test System: CHINESE HAMSTER V-79, Strain/Indicator: V-79/6-THIOGUANINE, Metabolic Activation: NONE, Method: STANDARD PLATE) was “active; positive”, the mutagenic call (Test System: CHINESE HAMSTER V-79, Strain/Indicator: V-79/6-THIOGUANINE, Metabolic Activation: NONE, Method: SUSPENSION/PLATE) was “active; positive” and the mutagenic call (Test System: CHINESE HAMSTER V-79, Strain/Indicator: V-79/8-AZAGUANINE, Metabolic Activation: NONE, Method: STANDARD PLATE) was “active; positive”. The mutagenic call (Test System: CHINESE HAMSTER V-79, Strain/Indicator: V-79/OUABAIN, Metabolic Activation: NONE, Method: STANDARD PLATE) was “active; positive”, the mutagenic call (Test System: CHINESE HAMSTER V-79, Strain/Indicator: V-79/OUABAIN, Metabolic Activation: NONE, Method: SUSPENSION/PLATE) was “inactive; negative” and the mutagenic call (Test System: CHO/HGPRT, Strain/Indicator: CHO-K1-BH4, Metabolic Activation: NONE, Method: STANDARD PLATE) was “active; positive”. For the same molecule, the mutagenic call (Test System: E. COLI, Strain/Indicator: TK701 (PKM101), Metabolic Activation: NONE, Method: STANDARD PLATE) was “active; positive”, the mutagenic call (Test System: E. COLI, Strain/Indicator: TK701, Metabolic Activation: NONE, Method: STANDARD PLATE) was “active; positive” and the mutagenic call (Test System: E. COLI, Strain/Indicator: TK702 (PKM101), Metabolic Activation: NONE, Method: STANDARD PLATE) was “active; positive”. The mutagenic call (Test System: E. COLI, Strain/Indicator: TK702, Metabolic Activation: NONE, Method: STANDARD PLATE) was “inactive; negative”, the mutagenic call (Test System: E. COLI, Strain/Indicator: WP2, Metabolic Activation: NONE, Method: FLUCTUATION) was “active; positive” and the mutagenic call (Test System: E. COLI, Strain/Indicator: WP2, Metabolic Activation: NONE, Method: PREINCUBATION) was “active; positive”. The mutagenic call (Test System: E. COLI, Strain/Indicator: WP2, Metabolic Activation: NONE, Method: STANDARD PLATE) was “active; positive”, the mutagenic call (Test System: E. COLI, Strain/Indicator: WP2 UVRA, Metabolic Activation: HAMSTER, LIVER, S-9, AROCLOR 1254, Method: STANDARD PLATE) was “active; positive” and the mutagenic call (Test System: E. COLI, Strain/Indicator: WP2 UVRA, Metabolic Activation: HAMSTER, LIVER, S-9, Method: STANDARD PLATE) was “active; positive”. The mutagenic call (Test System: E. COLI, Strain/Indicator: WP2 UVRA, Metabolic Activation: MOUSE, LIVER, S-9, AROCLOR 1254, Method: STANDARD PLATE) was “active; positive”, the mutagenic call (Test System: E. COLI, Strain/Indicator: WP2 UVRA, Metabolic Activation: MOUSE, LIVER, S-9, Method: STANDARD PLATE) was “active; positive” and the mutagenic call (Test System: E. COLI, Strain/Indicator: WP2 UVRA, Metabolic Activation: NONE, Method: FLUCTUATION) was “active; positive”. The mutagenic call (Test System: E. COLI, Strain/Indicator: WP2 UVRA, Metabolic Activation: NONE, Method: PREINCUBATION) was “active; positive”, the mutagenic call (Test System: E. COLI, Strain/Indicator: WP2 UVRA, Metabolic Activation: RAT, LIVER, S-9, AROCLOR 1254, Method: STANDARD PLATE) was “active; positive” and the mutagenic call (Test System: E. COLI, Strain/Indicator: WP2 UVRA, Metabolic Activation: RAT, LIVER, S-9, Method: STANDARD PLATE) was “active; positive”. For the same molecule, the mutagenic call (Test System: MOUSE LYMPHOMA, Strain/Indicator: L5178Y (TK+/TK-), Metabolic Activation: NONE, Method: SUSPENSION/PLATE) was “active; positive”, the mutagenic call (Test System: MOUSE LYMPHOMA, Strain/Indicator: L5178Y (TK+/TK-), Metabolic Activation: RAT, LIVER, S-9, AROCLOR 1254, Method: SUSPENSION/PLATE) was “active; positive” and the mutagenic call (Test System: UDS HUMAN CELLS, Strain/Indicator: THY INCORP (NON-S-PHASE), Metabolic Activation: NONE, Method: AUTORADIOGRAPHY) was “active; positive”. The mutagenic call (Test System: UDS HUMAN CELLS, Strain/Indicator: THY INCORP (NON-S-PHASE), Metabolic Activation: NONE, Method: LIQUID SCINTILLATION COUNTING) was “active; positive”, the mutagenic call (Test System: UDS HUMAN KERATINOCYTES, Strain/Indicator: THY INCORP, Metabolic Activation: NONE, Method: AUTORADIOGRAPHY) was “active; positive” and the mutagenic call (Test System: UDS HUMAN LYMPHOCYTES, Strain/Indicator: THY INCORP (NON-S-PHASE), Metabolic Activation: NONE, Method: LIQUID SCINTILLATION COUNTING) was “active; positive”. The mutagenic call (Test System: UDS MONKEY HEPATOCYTES, Strain/Indicator: THY INCORP, Metabolic Activation: AROCLOR 1254, Method: AUTORADIOGRAPHY) was “active; positive”, the mutagenic call (Test System: UDS MONKEY HEPATOCYTES, Strain/Indicator: THY INCORP, Metabolic Activation: NONE, Method: AUTORADIOGRAPHY) was “active; positive” and the mutagenic call (Test System: UDS RAT HEPATOCYTES, Strain/Indicator: BROMODEOXYURIDINE INCORP, Metabolic Activation: NONE, Method: FLOW CYTOMETRIC ANALYSIS) was “active; positive”. For the same molecule, the mutagenic call (Test System: UDS RAT HEPATOCYTES, Strain/Indicator: THY INCORP, Metabolic Activation: NONE, Method: AUTORADIOGRAPHY) was “active; positive”, the mutagenic call (Test System: UDS RAT PACHYTENE SPERMATOCYTES, Strain/Indicator: THY INCORP, Metabolic Activation: NONE, Method: LIQUID SCINTILLATION COUNTING) was “active; positive” and the mutagenic call (Test System: UDS RODENT CELLS, Strain/Indicator: THY INCORP (NON-S-PHASE), Metabolic Activation: NONE, Method: AUTORADIOGRAPHY) was “active; positive”. The mutagenic call (Test System: UDS RODENT CELLS, Strain/Indicator: THY INCORP (NON-S-PHASE), Metabolic Activation: NONE, Method: LIQUID SCINTILLATION COUNTING) was “active; positive”, the mutagenic call (Test System: UDS RODENT HEPATOCYTES, Strain/Indicator: THY INCORP (NON-S-PHASE), Method: AUTORADIOGRAPHY) was “active; positive” and the mutagenic call (Test System: UDS RODENT HEPATOCYTES, Strain/Indicator: THY INCORP (NON-S-PHASE), Method: LIQUID SCINTILLATION COUNTING) was “active; positive”. For the same molecule, the mutagenic call (Test System: UDS RODENT PRIMARY CELLS, Strain/Indicator: THY INCORP (NON-S-PHASE), Metabolic Activation: NONE, Method: LIQUID SCINTILLATION COUNTING) was “active; positive” and the mutagenic call (Test System: UDS, Strain/Indicator: HEPG2/THYMIDINE INCORPORATION, Metabolic Activation: NONE, Method: AUTORADIOGRAPHY) was “active; positive”.
